Experimental data reported in patent US9474744B2, “Beta-lactam compounds for treating diabetes” (STEM CELL MEDICINE LTD., priority 2011, dated 2016).
Entries after “also recorded” stand apart in the source; their conditions may differ.

Assays:
[1] = target: T1, albumin of human CD3 T cells (Homo sapiens, UniProt P02768); test: Western blot with Pen 9 antibody of antibiotic-treated human T cells; assay type: cell-based; conditions: T cells activated by mitogen in presence of antibiotic
T1 construct: endogenous in cells; host or cells: primary human peripheral-blood T cells (CD3+, CD4+ or CD8+) from healthy donors
T1 sequence (P02768 25-609): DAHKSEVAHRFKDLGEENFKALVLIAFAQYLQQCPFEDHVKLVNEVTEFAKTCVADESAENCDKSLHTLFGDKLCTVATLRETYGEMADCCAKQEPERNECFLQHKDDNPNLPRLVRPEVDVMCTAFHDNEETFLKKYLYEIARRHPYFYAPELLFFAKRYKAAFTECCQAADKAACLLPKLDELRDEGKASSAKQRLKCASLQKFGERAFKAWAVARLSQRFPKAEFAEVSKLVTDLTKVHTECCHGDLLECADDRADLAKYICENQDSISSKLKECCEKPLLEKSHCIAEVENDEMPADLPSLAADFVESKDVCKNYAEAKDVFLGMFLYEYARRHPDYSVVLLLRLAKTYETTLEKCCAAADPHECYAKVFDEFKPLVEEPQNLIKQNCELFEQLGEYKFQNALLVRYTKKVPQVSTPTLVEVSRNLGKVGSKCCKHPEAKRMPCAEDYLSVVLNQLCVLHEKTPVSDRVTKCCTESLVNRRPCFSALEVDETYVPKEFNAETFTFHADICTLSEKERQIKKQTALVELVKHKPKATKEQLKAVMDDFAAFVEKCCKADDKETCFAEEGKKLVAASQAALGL
Method: Rat tissues were ground with a tissue grinder in lysis buffer. The homogenate was centrifuged 14000 g for 15 min in 4° C. and the supernatant was used for western blotting. The protein concentration was determined using the BIO-RAD DC™ protein assay (Bio-Rad laboratories, Hercules, Calif.). Following electrophoresis in SDS gel in a mini-gel apparatus (Bio-Rad), the gels were electro-transferred to nitrocellulose membranes (Schleicher and schuell, Dassel, Germany). The nitrocellulose membranes were washed with distilled water for 5 min, and then blocked for 60 min. using a blocking solution composed of 2% bovine serum albumin (Fraction V, Sigma, St. Louis Mo.), 2.5% milk powder (Bio-Rad), Tris (Sigma) pH 7.5 10 mM, NaCl 150 mM and 0.02% thimerosal (Sigma). After 3×10 min. washes in PBS/TWEEN® 20 (PBS/T; 0.02%, Sigma), primary antibodies (1/1000) were incubated with the membranes in PBS/TWEEN® for 60 min. Following another series of washes in PBS/T (3×10 min), the membranes were incubated with a secondary antibody (Peroxidase conjugated anti rabbit or anti mouse, IgG Jackson ImmunoResearch, West Grove, Calif.) at a 1/2500 dilution in 2% milk in PBS solution for 60 min. After another 3×10 min washes, the membranes were incubated with the ECL reagent (for 60 seconds) and exposed to X-ray film.

NOD mice = test: Development of autoimmune diabetes in NOD mice; assay type: in vivo, mouse
From the text: Inbred female Lewis rats and NOD (non-obese diabetic) mice were supplied by the animal breeding center of the Weizmann Institute of Science, Israel, under the supervision of Harlan Laboratories and were used at 2-3 months of age. Experiments were approved by the Institutional Animal Care and Use Committee. Human peripheral blood lymphocytes from healthy donors were obtained from the blood bank of Sheba Medical Center, Tel Hashomer, Israel.
NOD mice spontaneously develop diabetes mellitus similar to type I diabetes in humans. […] The mice were followed for the development of diabetes, marked by blood sugar above 300 mg/dl on 2 measurements.

CD4+ human T cells = test: Real-time PCR verification of six gene-array genes; assay type: cell-based; conditions: cDNA from the same RNA as the gene array; normalised to B2M
Method: To verify the results of the gene array, we synthesized real-time PCR primers (designed with the […]® probe design software (Roche)). Real-time PCR of 6 selected genes was performed using a […]® (Roche, Basel, Switzerland). RNA was reverse transcribed to cDNA from 1 μg of total RNA, which was then subjected to quantitative RT-PCR performed essentially according to the manufacturer's instructions. Specific primer pairs were used to amplify specific genes in the presence of 3 mM MgCl2. PCR was performed in triplicate in a total volume of 20 μl of […]® HotStart DNA SYBR Green I mix (Roche) containing primer and 5 μl of cDNA. […] Denaturation was performed for 15 s at 95° C., annealing was performed in 60° C., and the extension was performed at 72° C. for 20 s, with fluorescence detection at 72° C. after each cycle. After the final cycle, melting point analyses of all samples were performed within the range of 62-95° C. with continuous fluorescence detection. […]
The Human Autoimmune and Inflammatory Response Gene Array (SuperArray Bioscience corporation, Frederick, Md., USA) was used for analysis of gene expression by the T cells. […] To verify the results detected by the gene array study, a panel of six genes was designed and tested by real-time PCR: CCR4, ACVR2, JAK1, STAT4, TLR2 and NFKBIE. […]

[2] = system: Adjuvant Arthritis (AA) in Lewis rats; test: Adjuvant arthritis (AA) in rats, IP antibiotic treatment; assay type: in vivo, rat; conditions: IP 5 mg (25 mg/kg) once every 2 or 3 days from day 12; versus non-injected control
[3] = system: active experimental autoimmune encephalomyelitis (EAE) in Lewis rats; test: Actively induced EAE in rats, oral antibiotic treatment; assay type: in vivo, rat; conditions: oral cefuroxime Axetil in drinking water from day 7 post-induction, 50 mg/kg daily, versus the two control groups

Pen 9 reactivity with lysates of antibiotic-treated T cells [1] | Structure (SMILES) | development of type I diabetes in NOD mice (NOD mice; FIG. 1D) | incidence of diabetes (NOD mice; at 5.7 months, s.c. at weekly intervals, ampicillin 1300 μg or ceftriaxone 675 μg per mouse, blood sugar above 300 mg/dl on 2 measurements, control 60%) | expression of CCR4, ACVR2, JAK1, STAT4, TLR2 and NFKBIE by real-time PCR (CD4+ human T cells) | arthritis scores [2] | severity of active EAE [3]
did not bind | CC1(C)S[C@@H]2[C@H](NC(=O)[C@H](N)c3ccccc3)C(=O)N2[C@H]1C(=O)O [ampicillin] | Inhibition of type I diabetes | 30% | – | – | –
– | CO/N=C(\C(=O)N[C@@H]1C(=O)N2C(C(=O)O)=C(COC(N)=O)CS[C@H]12)c1ccco1 [cefuroxime] | – | – | suppressed | significantly more severe arthritis scores; also recorded: Exacerbation of adjuvant-induced arthritis | significantly more severe EAE; also recorded: increases the severity of actively induced EAE
